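Assay format: 96-well plates, 48-hour exposure. The concentration for full growth arrest is given as TGI.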 A value given as a limit tells only on which side of the number the result lay.

Some test systems named below: EKVX NSCLC; HCC-2998 colon; HCT-116 colon; HOP-62 NSCLC; HOP-92 NSCLC; LOX IMVI melanoma; M14 melanoma; NCI-H23 lung; NCI-H522 lung; NCI/ADR-RES ovarian; OVCAR-3 ovarian; OVCAR-4 ovarian; PC-3 prostate; RPMI-8226 leukemia; RXF 393 renal; SK-OV-3 ovarian; SNB-75 CNS; SR leukemia; TK-10 renal; U251 CNS.
Experiment in all cases: NCI-60 cell line screen, 48 h

For the molecule `COc1nc2c(c(=O)n1C)NC(C(O)C(O)CO)C=N2` (configuration not stated), the TGI with EKVX NSCLC, with HCC-2998 colon, with HCT-116 colon, with HOP-62 NSCLC, in the experiment on HOP-92 NSCLC and in the experiment with LOX IMVI melanoma was above 10 µM each time. Further, the TGI in the experiment with M14 melanoma, with NCI-H23 lung, in the experiment with NCI-H522 lung, in the experiment on NCI/ADR-RES ovarian, in the experiment on OVCAR-3 ovarian and in the experiment with OVCAR-4 ovarian was above 10 µM each time. The TGI with PC-3 prostate, in the experiment with RPMI-8226 leukemia, in the experiment with RXF 393 renal, with SK-OV-3 ovarian, in the experiment on SNB-75 CNS and with SR leukemia was above 10 µM throughout. Also, the TGI with TK-10 renal and in the experiment on U251 CNS was above 10 µM throughout.
Consider `Oc1[nH]c2ccccc2c1N=NC(=S)N1CCCC1`, for which the TGI in the experiment with EKVX NSCLC is above 65.3 µM; in the experiment with HCC-2998 colon, 23.6 µM; in the experiment with HCT-116 colon it was 21.5 µM; in the experiment with HOP-62 NSCLC, 26.2 µM; in the experiment on HOP-92 NSCLC, 39.3 µM; with LOX IMVI melanoma, 18.3 µM. The TGI in the experiment on M14 melanoma amounted to 8.44 µM; in the experiment on NCI-H23 lung, 34.5 µM; with NCI-H522 lung, 38.9 µM; with NCI/ADR-RES ovarian, 6.03 µM; in the experiment on OVCAR-3 ovarian it was 17 µM; in the experiment on OVCAR-4 ovarian, 32.2 µM. For the same molecule, the TGI in the experiment with PC-3 prostate stood at 57.8 µM; in the experiment on RPMI-8226 leukemia, 9.64 µM; in the experiment on RXF 393 renal, 3.55 µM; in the experiment on SK-OV-3 ovarian, 21.6 µM; in the experiment with SNB-75 CNS, 14.1 µM; in the experiment with SR leukemia, 3.65 µM. Further, the TGI was 36.2 µM in the experiment on TK-10 renal and 22.6 µM in the experiment on U251 CNS.
As for `NC(N)=NS(=O)(=O)c1ccc(NNc2c3ccccc3nc3c(C(=O)Nc4ccc(S(N)(=O)=O)cc4)cccc23)cc1`, the TGI with EKVX NSCLC was above 100 µM; with HCC-2998 colon, above 100 µM; in the experiment with HCT-116 colon, above 100 µM; in the experiment with HOP-62 NSCLC, above 100 µM; in the experiment on HOP-92 NSCLC, 73.8 µM; with LOX IMVI melanoma it was 29.4 µM. Further, the TGI in the experiment with M14 melanoma, in the experiment with NCI-H23 lung, in the experiment with NCI-H522 lung, in the experiment with NCI/ADR-RES ovarian, in the experiment on OVCAR-3 ovarian and in the experiment on OVCAR-4 ovarian was above 100 µM throughout. The TGI in the experiment with PC-3 prostate, in the experiment with RPMI-8226 leukemia, in the experiment with RXF 393 renal, in the experiment with SK-OV-3 ovarian, with SNB-75 CNS and in the experiment with SR leukemia was above 100 µM each time. Further, the TGI in the experiment on TK-10 renal was above 100 µM; with U251 CNS, 83.9 µM.
Consider `COC(=O)c1ccc(NCc2cc(O)ccc2O)cc1O`, for which the TGI with EKVX NSCLC came out at 27 µM; in the experiment on HCC-2998 colon, 26.7 µM; in the experiment on HCT-116 colon, 36.3 µM; in the experiment on HOP-62 NSCLC it was 24.4 µM; in the experiment on HOP-92 NSCLC, 29 µM; in the experiment on LOX IMVI melanoma, 32.1 µM. The TGI was 31.7 µM in the experiment with M14 melanoma; 27.9 µM in the experiment with NCI-H23 lung; 1.59 µM with NCI-H522 lung; 10.8 µM in the experiment with NCI/ADR-RES ovarian; 15.2 µM in the experiment on OVCAR-3 ovarian; 26.2 µM in the experiment on OVCAR-4 ovarian. Also, the TGI with PC-3 prostate is above 32.3 µM; in the experiment with RPMI-8226 leukemia, 4.93 µM; in the experiment with RXF 393 renal it was 21.6 µM; in the experiment with SK-OV-3 ovarian, above 55.5 µM; with SNB-75 CNS it was 22 µM; in the experiment on SR leukemia, above 23.8 µM. The TGI with TK-10 renal is 33.2 µM; in the experiment with U251 CNS, 24.2 µM.
Turning to `OC1(c2ccc3ccccc3c2)c2ccc3ccccc3c2C2=NCCN21` (configuration not stated), the TGI in the experiment with EKVX NSCLC was above 100 µM; in the experiment on HCC-2998 colon, above 100 µM; in the experiment with HCT-116 colon it was above 100 µM; with HOP-62 NSCLC, 47.3 µM; in the experiment on HOP-92 NSCLC, above 100 µM; in the experiment with LOX IMVI melanoma it was above 100 µM. Besides, the TGI with M14 melanoma was above 100 µM; with NCI-H23 lung, above 100 µM; in the experiment with NCI/ADR-RES ovarian, above 100 µM; in the experiment with OVCAR-3 ovarian, above 100 µM; in the experiment on OVCAR-4 ovarian it was 85.8 µM; with PC-3 prostate it was above 100 µM. For the same molecule, the TGI with RPMI-8226 leukemia was above 100 µM; in the experiment on RXF 393 renal, 98.5 µM; in the experiment with SK-OV-3 ovarian, above 100 µM; in the experiment on SNB-75 CNS, 46.9 µM; in the experiment on SR leukemia, above 100 µM; with TK-10 renal it was above 100 µM. In the experiment with U251 CNS, this molecule returned a TGI above 100 µM.
Regarding `CC(=O)O/C=C\OC1CCCC1`, the TGI in the experiment with EKVX NSCLC, in the experiment on HCC-2998 colon, in the experiment with HOP-62 NSCLC, in the experiment on HOP-92 NSCLC, with LOX IMVI melanoma and in the experiment with M14 melanoma was above 100 µM each time. The TGI in the experiment on NCI-H23 lung, in the experiment with NCI-H522 lung, with NCI/ADR-RES ovarian, in the experiment with OVCAR-3 ovarian, in the experiment with OVCAR-4 ovarian and in the experiment on PC-3 prostate was above 100 µM in each case. For the same molecule, the TGI in the experiment with RPMI-8226 leukemia, in the experiment with RXF 393 renal, in the experiment with SK-OV-3 ovarian, in the experiment with SNB-75 CNS, in the experiment with SR leukemia and with TK-10 renal was above 100 µM throughout. The same molecule had a TGI in the experiment on U251 CNS above 100 µM.
Consider `O=C1/C(=C\c2c(-c3ccccc3)nn(-c3ccccc3)c2O)C(c2ccccc2)=NN1c1ccccc1`, for which the TGI in the experiment on EKVX NSCLC, with HCC-2998 colon, in the experiment with HCT-116 colon, in the experiment with HOP-62 NSCLC, in the experiment on HOP-92 NSCLC and in the experiment with LOX IMVI melanoma was above 100 µM in each case. Also, the TGI in the experiment on M14 melanoma, with NCI-H23 lung, in the experiment on NCI/ADR-RES ovarian, in the experiment with OVCAR-3 ovarian, with OVCAR-4 ovarian and with PC-3 prostate was above 100 µM throughout. For the same molecule, the TGI was above 100 µM with RPMI-8226 leukemia; above 100 µM with RXF 393 renal; above 100 µM with SK-OV-3 ovarian; above 100 µM in the experiment on SNB-75 CNS; 61.4 µM in the experiment on SR leukemia; above 100 µM with TK-10 renal. For the same molecule, in the experiment with U251 CNS, the TGI is above 100 µM.

The values above are taken from PubChem BioAssay (NCI).
